In patent US20110268688A1, “METHOD AND COMPOSITIONS FOR IMPROVING SKIN AND BODY APPEARANCE” (priority 2008, published 2011):

Test system: adipocytes
Test: Lypolysis Assay Kit (dual glycerol and free fatty acids detection), adipocyte lipolytic activity
Format: cell-based
Details: forskolin 25, 2.5, 0.25 micromolar; conjugated linoleic acid 10, 1, 0.1 micromolar; 5 hours at 37° C.; optical density at 540 nanometers
Protocol: Suitable lipolytic agents may be identified by conducting a simple test using a lipolysis assay kit purchased from Zen-Bio. One suitable kit is the Lypolysis Assay Kit (dual glycerol and free fatty acids detection, reagents+cells) purchased from Zen-Bio (www.zen-bio.com) under catalog no. LIP-3.
The adipocyte lipolytic activity of ingredients was tested using Lypolysis Assay Kit (dual glycerol and free fatty acids detection, reagents+cells) purchased from Zen-Bio (www.zen-bio.com) under catalog no. LIP-3. Serial dilutions of forskolin and conjugated linoleic acid were prepared in Krebs-Ringer Buffer containing 1% by weight free fatty acid bovine serum albumin. Culture medium was removed from the plate wells and the cells were washed with phosphate buffered saline. The forskolin test material was added to the test wells to provide wells having a total concentration of 25, 2.5, and 0.25 micromolar. The conjugated linoleic acid test material was added to the test wells to provide concentrations of 10, 1, and 0.1 micromolar. The plate was incubated for 5 hours at 37° C. Fifty microliters of test material was removed from each plate and transferred to clean wells. Triglyceride breakdown was tested by measuring for the presence of glycerol or NEFA (non-esterified fatty acids). […] The optical density of each well of the glycerol and NEFA plate wells was measured at 540 nanometers.

## conjugated linoleic acid
  adipocyte lipolytic activity (triglyceride breakdown, glycerol or NEFA): effective in increasing lipolysis of adipocytes
